Data as given in article PMC3740200 (Dalton transactions (Cambridge, England : 2003), 2012).
Like-named read-outs stand apart in the source and are kept apart here.

Assays:
WT DaCld = conditions: cited from earlier work
DaCld(W227F) = DaCld(W227F) (Dechloromonas aromatica, UniProt Q47CX0, W261F); experiment: Equilibrium binding of heme ligands
W156F DaCld = W156F DaCld (Dechloromonas aromatica, UniProt Q47CX0, W190F); experiment: Equilibrium binding of heme ligands
W156F DaCld, sequence (Q47CX0 32-282 W190F): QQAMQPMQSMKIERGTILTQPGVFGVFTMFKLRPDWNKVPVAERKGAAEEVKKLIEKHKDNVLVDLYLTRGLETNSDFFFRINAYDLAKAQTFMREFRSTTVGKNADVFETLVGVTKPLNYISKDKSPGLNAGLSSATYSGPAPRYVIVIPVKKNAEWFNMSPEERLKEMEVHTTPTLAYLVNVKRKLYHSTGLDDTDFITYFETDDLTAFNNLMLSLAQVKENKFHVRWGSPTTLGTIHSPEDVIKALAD

DaCld(W227F), sequence (Q47CX0 32-282 W261F): as the sequence (Q47CX0 32-282 W190F) above, with F159W, W230F counted along it

## [N-]=[N+]=[N-] [N3^-, azide]
WT DaCld; pH 7
  Kd: 8.3 ± 0.1 µM
DaCld(W227F); pH 7
  Kd: 7 ± 0.3 µM
W156F DaCld; pH 7
  Kd: 34.5 ± 3.1 µM

## c1c[nH]cn1 [Imidazole]
WT DaCld; pH 7, 100 mM phosphate, 25 °C, ref [16]
  Kd: 9.6 ± 0.3 µM
DaCld(W227F)
  Kd: 17.5 ± 1.5 µM
W156F DaCld
  Kd: 26.6 ± 3.5 µM

## F [F^-, fluoride]
WT DaCld; pH 7
  Kd: 15000 ± 1000 µM
DaCld(W227F)
  Kd: 3800 ± 900 µM
